For 26 compounds, EC50 results are on record in US20250333406A1, “SULFONYL CYCLIC DERIVATIVES, AND COMPOSITIONS AND METHODS THEREOF” (Lysoway Therapeutics, Inc., priority 2023, published 2025).

pEC50: −log10 of the molar value.

The assay has as its system TFEB. As to the kind of experiment: TFEB Nuclear Translocation Assay. The format is cell-based. The note with it: read-out: EC50 of TFEB activation.
For orientation: pEC50 means −log10 of the EC50, conventionally taken in molar units. On to `CC(C)S(=O)(=O)n1ccc(S(=O)(=O)n2nc(N3CCCC4(CC4)C3)c3c(Cl)cccc32)c1` [Compound 139, 3-(5-azaspiro [2.5]octan-5-yl)-4-chloro-1-(1-isopropylsulfonylpyrrol-3-yl) sulfonyl-indazole], for which the negative-log EC50 (pEC50) was at least 6.00.
Next, `CC(C)S(=O)(=O)n1ccc(S(=O)(=O)n2nc(N3CCN(c4ncc(Cl)cc4F)CC34CC4)c3c(Cl)cccc32)c1` [Compound 140, 4-chloro-3-[7-(5-chloro-3-fluoro-2-pyridyl)-4,7-diazaspiro [2.5]octan-4-yl]-1-(1-isopropylsulfonylpyrrol-3-yl) sulfonyl-indazole]: at least 6.00; `CC(C)S(=O)(=O)n1ccc(S(=O)(=O)n2nc(N3CCN(c4ncc(F)cc4F)CC34CC4)c3c(Cl)cccc32)c1` [Compound 141, 4-chloro-3-[7-(3,5-difluoro-2-pyridyl)-4,7-diazaspiro [2.5]octan-4-yl]-1-(1-isopropylsulfonylpyrrol-3-yl) sulfonyl-indazole]: at least 6.00; `CC(C)S(=O)(=O)n1ccc(S(=O)(=O)n2nc(N3CCN(c4ncc(F)cc4F)CC34CC4)c3c(Cl)ccc(F)c32)c1` [Compound 142, 4-chloro-3-[7-(3,5-difluoro-2-pyridyl)-4,7-diazaspiro [2.5]octan-4-yl]-7-fluoro-1-(1-isopropylsulfonylpyrrol-3-yl) sulfonyl-indazole]: at least 6.00.
For `O=S(=O)(c1ccn(S(=O)(=O)C2CC2)c1)n1nc(N2CCN(c3ncc(F)cc3F)CC23CC3)c2c(Cl)ccc(F)c21` [Compound 143, 4-chloro-1-((1-(cyclopropylsulfonyl)-1H-pyrrol-3-yl)sulfonyl)-3-(7-(3,5-difluoropyridin-2-yl)-4,7-diazaspiro [2.5]octan-4-yl)-7-fluoro-1H-indazole], the pEC50 is at least 6.00.
Next, `CC(C)S(=O)(=O)n1ccc(S(=O)(=O)n2nc(N3CCN(c4ncc(F)cc4F)CC34CC4)c3c(F)ccc(F)c32)c1` [Compound 144, 3-[7-(3,5-difluoro-2-pyridyl)-4,7-diazaspiro [2.5]octan-4-yl]-4,7-difluoro-1-(1-isopropylsulfonylpyrrol-3-yl) sulfonyl-indazole]: at least 6.00.
The same measure for `O=S(=O)(c1ccn(S(=O)(=O)C2CC2)c1)n1nc(N2CCN(c3ncc(F)cc3F)CC23CC3)c2c(F)ccc(F)c21` [Compound 145, 1-(1-cyclopropylsulfonylpyrrol-3-yl) sulfonyl-3-[7-(3,5-difluoro-2-pyridyl)-4,7-diazaspiro [2.5]octan-4-yl]-4,7-difluoro-indazole]: at least 6.00.
With `O=S(=O)(c1ccn(S(=O)(=O)C2CC2)c1)n1nc(N2CCN(c3ncc(Cl)cc3F)CC23CC3)c2c(F)ccc(F)c21` [Compound 146, 3-[7-(5-chloro-3-fluoro-2-pyridyl)-4,7-diazaspiro [2.5]octan-4-yl]-1-(1-cyclopropylsulfonylpyrrol-3-yl) sulfonyl-4,7-difluoro-indazole], the pEC50 is at least 6.00.
Next, `CC(C)S(=O)(=O)n1ccc(S(=O)(=O)n2nc(N3CCN(c4ncc(Cl)cc4F)CC34CC4)c3c(Cl)ccc(F)c32)c1` [Compound 147, 4-chloro-3-[7-(5-chloro-3-fluoro-2-pyridyl)-4,7-diazaspiro [2.5]octan-4-yl]-7-fluoro-1-(1-isopropylsulfonylpyrrol-3-yl) sulfonyl-indazole]: at least 6.00; `CC(C)S(=O)(=O)n1ccc(S(=O)(=O)n2nc(N3CCN(c4ncc(Cl)cc4F)CC34CC4)c3c(F)ccc(F)c32)c1` [Compound 148, 3-[7-(5-chloro-3-fluoro-2-pyridyl)-4,7-diazaspiro [2.5]octan-4-yl]-4,7-difluoro-1-(1-isopropylsulfonylpyrrol-3-yl) sulfonyl-indazole]: at least 6.00.
The same measure for `CC(C)S(=O)(=O)n1ccc(S(=O)(=O)n2nc(N3CCN(c4ncc(F)cn4)CC34CC4)c3c(F)ccc(F)c32)c1` [Compound 149, 4,7-difluoro-3-(7-(5-fluoropyrimidin-2-yl)-4,7-diazaspiro [2.5]octan-4-yl)-1-((1-(isopropylsulfonyl)-1H-pyrrol-3-yl)sulfonyl)-1H-indazole]: at least 6.00; for `CC(C)S(=O)(=O)n1ccc(S(=O)(=O)n2nc(N3CCN(c4ncc(Cl)cc4F)CC34CC4)c3c(Cl)cc(F)cc32)c1` [Compound 150, 4-chloro-3-(7-(5-chloro-3-fluoropyridin-2-yl)-4,7-diazaspiro [2.5]octan-4-yl)-6-fluoro-1-((1-(isopropylsulfonyl)-1H-pyrrol-3-yl)sulfonyl)-1H-indazole]: at least 6.00; for `CC(C)S(=O)(=O)n1ccc(S(=O)(=O)n2nc(N3CCN(c4ncc(Cl)cc4F)CC34CC4)c3c(Cl)cncc32)c1` [Compound 151, 4-chloro-3-[7-(5-chloro-3-fluoro-2-pyridyl)-4,7-diazaspiro [2.5]octan-4-yl]-1-(1-isopropylsulfonylpyrrol-3-yl) sulfonyl-pyrazolo [3,4-c]pyridine]: at least 6.00.
Next, `CC(C)S(=O)(=O)n1ccc(S(=O)(=O)n2nc(N3CCN(c4ncc(Cl)cc4F)CC34CC4)c3c(Cl)ccnc32)c1` [Compound 152, 4-chloro-3-[7-(5-chloro-3-fluoro-2-pyridyl)-4,7-diazaspiro [2.5]octan-4-yl]-1-(1-isopropylsulfonylpyrrol-3-yl) sulfonyl-pyrazolo [3,4-b]pyridine]: at least 6.00; `CC(C)S(=O)(=O)n1ccc(S(=O)(=O)n2nc(N3CCN(c4ncc(Cl)cc4F)CC34CC4)c3c(Cl)nccc32)c1` [Compound 153, 4-chloro-3-(7-(5-chloro-3-fluoropyridin-2-yl)-4,7-diazaspiro[2.5]octan-4-yl)-1-((1-(isopropylsulfonyl)-1H-pyrrol-3-yl)sulfonyl)-1H-pyrazolo[4,3-c]pyridine]: at least 6.00.
For `CC(C)S(=O)(=O)n1ccc(S(=O)(=O)n2nc(N3CCN(c4ncc(Cl)cn4)CC34CC4)c3c(Cl)cc(F)cc32)c1` [Compound 154, 4-chloro-3-(7-(5-chloropyrimidin-2-yl)-4,7-diazaspiro [2.5]octan-4-yl)-6-fluoro-1-((1-(isopropylsulfonyl)-1H-pyrrol-3-yl)sulfonyl)-1H-indazole], the negative logarithm of the EC50 (pEC50) was at least 6.00.
The same measure for `CC(C)S(=O)(=O)n1ccc(S(=O)(=O)n2nc(N3CCN(c4ncc(F)cn4)CC34CC4)c3c(Cl)cc(F)cc32)c1` [Compound 155, 4-chloro-6-fluoro-3-(7-(5-fluoropyrimidin-2-yl)-4,7-diazaspiro [2.5]octan-4-yl)-1-((1-(isopropylsulfonyl)-1H-pyrrol-3-yl)sulfonyl)-1H-indazole]: at least 6.00; for `CC(C)S(=O)(=O)n1ccc(S(=O)(=O)n2nc(N3CCN(c4nc(Cl)ns4)CC34CC4)c3c(Cl)cc(F)cc32)c1` [Compound 156, 3-chloro-5-[4-[4-chloro-6-fluoro-1-(1-isopropylsulfonylpyrrol-3-yl)sulfonyl-indazol-3-yl]-4,7-diazaspiro [2.5]octan-7-yl]-1,2,4-thiadiazole]: at least 6.00.
The same measure for `CC(C)S(=O)(=O)n1ccc(S(=O)(=O)n2nc(N3CCN(c4ncc(Cl)s4)CC34CC4)c3c(Cl)cc(F)cc32)c1` [Compound 157, 5-chloro-2-(4-(4-chloro-6-fluoro-1-((1-(isopropylsulfonyl)-1H-pyrrol-3-yl)sulfonyl)-1H-indazol-3-yl)-4,7-diazaspiro [2.5]octan-7-yl) thiazole]: at least 6.00; for `CC(C)S(=O)(=O)n1ccc(S(=O)(=O)n2nc(N3CCN(c4ncc(F)cc4F)CC34CC4)c3c(Cl)cc(F)cc32)c1` [Compound 158, 4-chloro-3-[7-(3,5-difluoro-2-pyridyl)-4,7-diazaspiro [2.5]octan-4-yl]-6-fluoro-1-(1-isopropylsulfonylpyrrol-3-yl) sulfonyl-indazole]: at least 6.00.
Next, `CC(C)S(=O)(=O)n1ccc(S(=O)(=O)n2nc(N3CCN(c4ncc(F)cc4F)CC34CC4)c3c(F)cc(F)cc32)c1` [Compound 159, 3-(7-(3,5-difluoropyridin-2-yl)-4,7-diazaspiro [2.5]octan-4-yl)-4,6-difluoro-1-((1-(isopropylsulfonyl)-1H-pyrrol-3-yl)sulfonyl)-1H-indazole]: at least 6.00.
In the case of `Cc1cc(S(=O)(=O)n2nc(N3CCN(c4ncc(F)cc4F)CC34CC4)c3c(Cl)cc(F)cc32)c(C)n1S(=O)(=O)C(C)C` [Compound 160, 4-chloro-3-[7-(3,5-difluoro-2-pyridyl)-4,7-diazaspiro [2.5]octan-4-yl]-6-fluoro-1-(1-isopropylsulfonyl-2,5-dimethyl-pyrrol-3-yl) sulfonyl-indazole], the pEC50 is at least 6.00.
Next, `CC(C)S(=O)(=O)n1ccc(S(=O)(=O)n2nc(N3CCN(c4ccc(F)cn4)CC34CC4)c3c(Cl)cc(F)cc32)c1` [Compound 161, 4-chloro-6-fluoro-3-[7-(5-fluoro-2-pyridyl)-4,7-diazaspiro [2.5]octan-4-yl]-1-(1-isopropylsulfonylpyrrol-3-yl) sulfonyl-indazole]: at least 6.00.
Next, `CC(C)S(=O)(=O)n1ccc(S(=O)(=O)n2nc(N3CCN(c4ncccc4F)CC34CC4)c3c(Cl)cc(F)cc32)c1` [Compound 162, 4-chloro-6-fluoro-3-[7-(3-fluoro-2-pyridyl)-4,7-diazaspiro [2.5]octan-4-yl]-1-(1-isopropylsulfonylpyrrol-3-yl) sulfonyl-indazole]: at least 6.00; `CC(C)S(=O)(=O)n1ccc(S(=O)(=O)n2nc(N3CCN(c4ccccn4)CC34CC4)c3c(Cl)cc(F)cc32)c1` [Compound 163, 4-chloro-6-fluoro-1-(1-isopropylsulfonylpyrrol-3-yl)sulfonyl-3-[7-(2-pyridyl)-4,7-diazaspiro[2.5]octan-4-yl]indazole]: at least 6.00.
Next, `CC(C)S(=O)(=O)n1ccc(S(=O)(=O)n2nc(N3CCN(c4ncccn4)CC34CC4)c3c(Cl)cc(F)cc32)c1` [Compound 164, 4-chloro-6-fluoro-1-(1-isopropylsulfonylpyrrol-3-yl)sulfonyl-3-(7-pyrimidin-2-yl-4,7-diazaspiro[2.5]octan-4-yl) indazole]: at least 6.00.
